Assay results: patent publication US5648349A, “PLA2 inhibitors” (Monsanto Company, priority 1995, dated 1997)
Read-outs that look alike come from different tables or passages of the source.

Key:
porcine pancreatic PLA2 = biological target: T1, porcine pancreatic PLA2 (Sus scrofa, UniProt P00592); experiment: Millimolar Calcium-Dependent PLA2 Assay (porcine pancreatic PLA2, [14C]-oleate labeled E. coli substrate); assay type: biochemical
T1 construct: Purified porcine pancreatic PLA2 was obtained from Sigma; purchased Sigma (St. Louis, Mo.); host or cells: porcine pancreas
Excerpt: (§1) Specifically, one micromolar calcium-dependent mammalian PLA2 assay was used, i.e., sheep platelet PLA2, and two millimolar calcium-dependent mammalian PLA2 assays were used, i.e., human synovial fluid PLA2 and porcine pancreatic PLA2. The PLA2 enzymes represent different groups of PLA2 enzymes. Myocardial PLA2, platelet PLA2 and secreted PLA2 enzymes (human synovial fluid PLA2 and porcine pancreatic PLA2) have very different calcium requirements, which may be typical of their respective classes.
(§2) Millimolar Calcium-Dependent PLA2 Assays
Purified porcine pancreatic PLA2 was obtained from Sigma (St. Louis, Mo.). PLA2 activity was measured by using [14C]-oleate labeled autoclaved E. coli as described by Franson, Patriarca and Elsbach (referenced above). The assay was performed at 37° C. for 5 min. in a final volume of 100 μL Tris-HCl buffer (100 mM, pH 8.0) containing 1 mM EDTA, 10 mM CaCl2, and E. coli (containing […] phospholipid). The test compound or control vehicle was preincubated with PLA2 for 5 min. followed by adding E. coli to initiate the reaction. The reaction was terminated by adding 2 mL tetrahydrofuran. The reaction product [^14 C]-oleic acid, was isolated using a 1 mL Bond Elute--NH2 column and counted by liquid scintillation spectrometry.

[1] = biological target: T2, human synovial fluid PLA2 (Homo sapiens, UniProt P14555); experiment: Millimolar Calcium-Dependent PLA2 Assay (human synovial fluid PLA2, [14C]-oleate labeled E. coli substrate); assay type: biochemical; conditions: pH 7.0, 5 mM CaCl2, 30 min at 37° C., ">>" = little or no inhibition at highest concentration used
T2 construct: Purified human synovial fluid PLA2; tissue R. C; Franson (Medical College of Virginia, Richmond, Va.); host or cells: human synovial fluid
T2 sequence (P14555 21-144): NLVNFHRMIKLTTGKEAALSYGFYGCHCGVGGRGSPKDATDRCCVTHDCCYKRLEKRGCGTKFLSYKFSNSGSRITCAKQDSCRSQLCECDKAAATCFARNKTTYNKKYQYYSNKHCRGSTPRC
Excerpt: as §1, §2
Purified human synovial fluid PLA2 (purified by the procedure of Fawzy, A. A. and Franson, R. C. Biophys. J. 49, 533a [1986]) was obtained from R. C. Franson (Medical College of Virginia, Richmond, Va.). PLA2 activity was measured by using [^14 C]-oleate labeled autoclaved E. coli as substrate as described by Franson, R. C., Patriarca, P., and Elsbach, P. J., Lipid Res. 15, 380-388 (1974). The assay was performed at 37° C. for 30 min. in a final volume of 100 μL 50 mM Hepes buffer (pH 7.0) containing 150 mM NaCl, 5 mM CaCl2, and E. coli cells (corresponding to 10 nmol phospholipid). The test compound or control vehicle was preincubated with PLA2 for 5 min., followed by adding E. coli to initiate the reaction. The reaction was terminated by adding 2 mL tetrahydrofuran. The reaction product, [^14 C]-oleic acid, was isolated using a 1 mL Bond Elute--NH2 column and counted by liquid scintillation spectrometry.

HL-60 cells = experiment: HL-60 Cell Assay for LTB4 and PGE2 Production (calcium ionophore A23187 induced); assay type: cell-based; conditions: Homo sapiens; for IC50: A23187 5×10^-6 M
Method: An additional whole cell assay was also performed. In this assay, HL-60 cells are induced with the calcium ionophore A23187 in the presence of varying amounts of inhibitor, and the amounts of the prostaglandin E2 (PGE2) and leukotriene B4 (LTB4) which form are measured. Calcium ionophore A23187 activates a calcium-dependent PLA2 which leads to the enhanced production of the arachidonic acid metabolites PGE2 and LTB4. The concentrations of inhibitor which decrease the production of PGE2 and LTB4 by 50% relative to controls are expressed as IC50 values.
HL-60 Cell Assay for LTB4 and PGE2 Production
HL-60 cells grown exponentially in culture were induced to differentiate into granulocytes by a four day incubation with 0.8% (v/v) N,N-dimethylformamide. Prior to assay, differentiated HL-60 cells were washed once with Hanks' balanced salt solution containing 0.35 mg/mL sodium bicarbonate and 10 mM Hepes, pH 7.3 (HBSS) and resuspended in HBSS at a 3×10^6 cells/mL concentration. DMSO or test compounds solubilized in DMSO were added at 1:100 dilution to 1.0 mL HL-60 cell suspensions (3×10^6 cells) and preincubated at 37° C. for 10 min. in a shaking water bath. After an additional 5 min. incubation with 5×10^-6 M calcium ionophore, A23187 (Calbiochem, LaJolla, Calif.), the cells were centrifuged at 12,800×6 for 15 seconds and the supernatant (0.8 mL) removed and stored at -20° C. for LTB4 and PGE2 quantitation by radioimmunoassay (kits obtained from Amersham, United Kingdom and NEN Research Products, N. Billerica, Mass.).

[2] = test system: purified calcium-independent canine myocardial PLA2; experiment: Calcium-Independent PLA2 Assay (purified canine myocardial cytosolic PLA2, release of radiolabeled oleic acid); assay type: biochemical; conditions: pH 7.0, 6.4 mM EGTA, 1 μM substrate, 5 min at 37° C., read-out: IC50 Canine Heart PLA2
Method: This assay consists of determining the amount of radiolabeled fatty acid which is liberated from the radiolabeled phospholipid substrate by purified calcium-independent canine myocardial PLA2 in the presence of varying concentrations of the inhibitor. The concentration of inhibitor which decreases the activity of the enzyme to 50% of the activity observed in the absence of that inhibitor is determined. This concentration is defined as the IC50.
Calcium-Independent PLA2 Assay
Purified canine myocardial cytosolic PLA2 was isolated from an ATP-agarose eluate as described by Wolf, R. A., and Gross, R. W., J. Biol. Chem., 260, 7295-7303 (1985). The calcium-independent myocardial PLA2 was incubated with selected concentrations (10^-10 to 10^-4 M) of test compound in 168 mM Tris-Cl, 6.4 mM EGTA (a calcium chelator) (pH 7.0) for 5 min. at 25° C. Appropriate controls were performed in the absence of test compound. Catalysis was initiated by injection of 1 μM radiolabeled substrate (1-O-(Z)-(1'-hexadecenyl)-2-[9,10^-3 H]-oleoyl-3-phosphorylcholine). After a 5 min. incubation at 37° C., reaction products were extracted with n-butanol, separated by thin layer chromatography, and quantified by scintillation spectrometry. PLA2 activity was compared in the presence and absence of test compound and the IC50 was determined.

sheep platelet PLA2 = experiment: Micromolar Calcium-Dependent PLA2 Assay (sheep platelet cytosolic PLA2); assay type: biochemical; conditions: pH 7.2, 1 μM CaCl2, 1 μM substrate, 10 min at 37° C.
Excerpt: as §1
Micromolar Calcium-Dependent PLA2 Assay
Homogeneous sheep platelet cytosolic PLA2 was prepared as described by Loeb, L. A., and Gross, R. W., J. Biol. Chem., 261, 10467-10470 (1986). The purified calcium-dependent platelet PLA2 was preincubated in 70 mM Tris-Cl (pH 7.2) containing 1 μM CaCl2 and test compound for 5 min. at 25° C. Catalysis was initiated by injection of 1 μM radiolabeled substrate (1-O-(Z)-(1'-hexadecenyl)-2-[9,10^-3 H]-oleoyl-3-phosphorylcholine). After a 10 min. incubation period at 37° C., reaction products were extracted with n-butanol, separated by thin layer chromatography, and quantified by scintillation spectrometry. PLA2 activity was compared in the presence and absence of test compound and the IC50 was determined.
See Zupan, L. A., et al, "Calcium is sufficient but not necessary for activation of sheep platelet cytosolic phospholipase A2 ", FEBS Letters, Vol. 284, No. 1, 27-30 (1991).

rat neonatal myocytes = conditions: cited from earlier work
[3] = pH 8.0, 10 mM CaCl2, 5 min at 37° C., ">>" = little or no inhibition at highest concentration used, read-out: IC50 Porcine Pancreatic PLA2
[4] = human synovial fluid, read-out: IC50 HSF PLA2
[5] = LTB4 production, ">>" = little or no inhibition at highest concentration used, read-out: IC50 HL-60 LTB4
[6] = PGE2 production, ">" inhibition but not enough for IC50, ">>" little or no inhibition at highest concentration, read-out: IC50 HL-60 PGE2
[7] = IC50 HSF PLA2, human synovial fluid

T1 sequence (P00592 23-146): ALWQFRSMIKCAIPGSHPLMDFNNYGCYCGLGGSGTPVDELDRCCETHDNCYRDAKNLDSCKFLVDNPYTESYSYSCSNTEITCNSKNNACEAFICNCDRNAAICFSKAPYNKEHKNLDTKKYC

Row | SMILES | IC50 [1, 4] | IC50 (HL-60 cells; [5]) | IC50 (HL-60 cells; [6]) | IC50 [2] | IC50 (sheep platelet PLA2) | further results
1 | CCCCCCCCCCCC#Cc1ccccc1/C=C(\C(=O)OCC)P(=O)(O)O [Example 6, Ethyl E-2-phosphono-3-[2-(1-tridecynyl)phenyl]propenoate] | 16000 nM | 4400 nM | 3500 nM | – | – | IC50 (porcine pancreatic PLA2; [3]): 2500 nM
2 | CCCCCCCCCCCC#Cc1cccc(C=C(P(=O)(O)O)P(=O)(O)O)c1 [Example 2, [2-[3-(1-Tridecynyl)phenyl]ethenylidene]bisphosphonic acid] | 31000 nM | > 10000 nM | > 10000 nM | 450 nM | 11000 nM | IC50 (porcine pancreatic PLA2): > 100000 nM
3 | CCCCCCCCC(=O)NCC#Cc1ccccc1C=C(P(=O)(OCC)OCC)P(=O)(OCC)OCC [Example 18, Tetraethyl [2-[2-[3-[(1-oxononyl)amino]-1-propynyl]phenyl]ethenylidene]bisphosphonate] | – | – | – | > 100000 nM | ~100000 nM | –
4 | CCCCCCCCCCCC#Cc1cccc(P(=O)(OCC)OCC)c1 [Example 8, Diethyl [3-(1-tridecynyl)phenyl]phosphonate] | – | – | – | 360 nM | 220 nM | –
5 | COC1=CCC2=C(CCC3C2CC[C@@]2(C)C3CC[C@@H]2N(C)CCCN(C)C)C1 (stereo partly drawn) [U26,384] | – | – | – | – | – | release of arachidonic acid, phospholipid degradation, sarcolemmal membrane defects and release of creatine kinase induced by iodoacetate (rat neonatal myocytes; rat neonatal myocytes treated with iodoacetate, Sen et al (cited)): prevented the release of arachidonic acid, phospholipid degradation, sarcolemmal membrane defects and the release of creatine kinase
6 | O=C(O)CI [iodoacetate] | – | – | – | – | – | levels of ATP, release of arachidonic acid and morphological alterations of the myocytes (rat neonatal myocytes; rat neonatal myocytes, Chien et al 1985 (cited)): lowers the levels of ATP which results in the release of arachidonic acid and morphological alterations of the myocytes
7 | CCCCCCCCCCCC#Cc1cccc(C=C(P(=O)(O)O)P(=O)(O)O)c1 [Example 3, Disodium [2-[3-(1-tridecynyl)phenyl]ethenylidene]bisphosphonate] | – | – | – | 360 nM | 3200 nM | IC50 [1, 7]: 38000 nM
8 | CCCCCCCCCCCC#Cc1ccccc1/C=C/P(=O)(OCC)OCC [Example 13, Diethyl E-2-[2-(1-tridecynyl)phenyl]ethenylphosphonate] | – | – | – | 3000 nM | 1100 nM | –
9 | CCCCCCCCCCCC#Cc1ccccc1/C=C(\C(=O)OCC)P(=O)(OCC)OCC [Example 5, Ethyl 2-(diethoxyphosphinyl)-3-[2-(1-tridecynyl)phenyl]-2-E-propenoate] | > 100000 nM | 1300 nM | 2300 nM | 340 nM | 2400 nM | IC50 (porcine pancreatic PLA2; [3]): > 100000 nM
10 | CCCCCCCCCCCC#Cc1ccccc1/C=C/P(=O)(O)O [Example 14, 2-[2-(1-Tridecynyl)phenyl]ethenylphosphonic acid] | – | – | – | 4500 nM | 2900 nM | –
11 | CCCCCCCCCCCC#Cc1ccccc1C=C(P(=O)(O)O)P(=O)(O)O [Example 11, Disodium [2-[2-(1-tridecynyl)phenyl]ethenylidene]bisphosphonate] | – | – | – | 1900 nM | 2800 nM | IC50 [1, 7]: 25000 nM
12 | CCCCCCCCCCCC#Cc1ccccc1C=C(P(=O)(OCC)OCC)P(=O)(OCC)OCC [Example 9, Tetraethyl [2-[2-(1-tridecynyl)phenyl]ethenylidene]bisphosphonate] | > 100000 nM | 2600 nM | 4400 nM | 1500 nM | 160 nM | –
13 | CCCCCCCCCCCC#Cc1cccc(C=C(P(=O)(OCC)OCC)P(=O)(OCC)OCC)c1 [Example 1, Tetraethyl [2-[3-(1-tridecynyl)phenyl]ethenylidene]bisphosphonate] | > 100000 nM | 1200 nM | 3000 nM | 560 nM | 180 nM | activation at 100 µM (porcine pancreatic PLA2; 5 min, footnote a to the entry 100 (μM), + = activation): 40%; IC50 (porcine pancreatic PLA2; [3]): 100000 nM
14 | CCCCCCCCCCCC#Cc1ccccc1C=C(P(=O)(O)O)P(=O)(O)O [Example 10, [2-[2-(1-Tridecynyl)phenyl]ethenylldene]bisphosphonic acid] | 50000 nM | 10000 nM | > 10000 nM | 710 nM | 50000 nM | IC50 (porcine pancreatic PLA2): > 100000 nM; activation at 10 µM (HL-60 cells; footnote b to the entry 10 (μM), + = activation, LTB4): 21%
